# Source: US6316020A, “Pharmaceutical formulations” (priority 2000, dated 2001)
# Assay: Solubility assessment as a function of HPβCD concentration
# Format: physicochemical
# Conditions: water
# Protocol: Solubility studies were performed by the addition of a known mass of 5(6)-methoxy-2-[[(4-methoxy-3,5-dimethyl-2-pyridinyl)-methyl]sulfinyl]-1H- benzimidazole and/or HP CD to a given volume of solvent system. Solubilities were determined by observation, as the maximum concentration at which 5(6)-methoxy-2-[[(4-methoxy-3,5-dimethyl-2-pyridinyl)-methyl]sulfinyl]-1H- benzimidazole completely dissolved. Additionally, concentrations of 5(6)-methoxy-2-[[(4-methoxy-3,5-dimethyl-2-pyridinyl)-methyl]sulfinyl]-1H- benzimidazole and HP C D at set molar ratios were solubilized in systems of high pH (adjusted as high as 12.2, with 1N NaOH), the pH was adjusted (using 2N HCl) in a stepwise downward manner until precipitation occurred.
# The solubility of 5(6)-methoxy-2-[[(4-methoxy-3,5-dimethyl-2-pyridinyl)-methyl]sulfinyl]-1H- benzimidazole was assessed as a function of HPβCD concentration in water.
# The procedure according to Example 86 was repeated except that water with a borate buffer (pH of 8) was employed.
# The procedure according to Example 86 was repeated except that water with a phosphate buffer (pH of 11) was employed.
structure (smiles),measurement,value
"COc1ccc2[nH]c([S+]([O-])Cc3ncc(C)c(OC)c3C)nc2c1 (centres unmarked) [5(6)-methoxy-2-[[(4-methoxy-3,5-dimethyl-2-pyridinyl)-methyl]sulfinyl]-1H-benzimidazole]",Solubility as a function of HPβCD concentration,increase linearly as a function of HPβCD concentration
same,influence of pH on solubility,influenced by solution pH
